Experiments:
[1] = system: multiple human cancer xenograft models; assay: Xenograft panel, Example 3 (summary); assay type: in vivo, athymic nude mice; conditions: all xenograft models tested; oral 3.75, 7.5 or 15 mg/kg BID 2 consecutive days per week or 3 mg/kg BID everyday
Procedure: To investigate whether AMG 900-induced suppression of aurora kinase activity inhibits cell proliferation, the antiproliferative efficacy of AMG 900 was evaluated in-vivo in multiple human cancer xenograft models, including breast, colon, leukemia, lung, pancreatic, and uterine cancer models, grown in athymic nude mice. Mice were administered AMG 900 orally at 3.75, 7.5, or 15 mg/kg BID for 2 consecutive days per week or 3 mg/kg BID everyday for the duration of the study beginning when tumors were established. The reagents, solutions, equipment, formulation of AMG 900, tumor volume measurements and calculations were generally as described in Example 4 below.

769P = assay: Cellular EC50, additional cell lines (Table 6-B); assay type: cell-based; conditions: Homo sapiens, Kidney, P-gp+
Procedure: (§1) All high-content cell assays were performed on an ArrayScan VTi HCS Reader (Cellomics). Tumor cell lines were treated with AMG 900, AZD1152, MK-0457, or PHA-739358 (concentration range varied based on potency). The cells were prepared for intracellular staining with an anti-p-histone H3 Ser^10 antibody as previously described (1). Detection was performed with an anti-rabbit IgG-alexa-568 antibody and DAPI. The cellular levels of p-histone H3 were analyzed using Target Activation V2 algorithm (Cellomics) to determine the percentage of positive cells. For the imaging assays, the concentration-response curves and corresponding IC50 and EC50 values were calculated using the percentage of cells affected versus the DMSO control.
(§2) Tumor cells were treated with AMG 900, AZD1152, MK-0457, or PHA-739358 (range concentration varied based on potency) for 24 hours and processed for cell-cycle analysis (DNA staining only) as previously described (1). Cells were analyzed on a LSRII flow cytometer using BD FACS Diva software. The concentration-response curves and corresponding EC50 values were calculated using the percentage of cells with ≧4N DNA content versus the DMSO control.

SNU499 = assay: Cellular EC50, additional cell lines (Table 6-B); assay type: cell-based; conditions: Homo sapiens, Liver, P-gp+
Procedure: as §1, §2

MCF-7 = assay: Cellular EC50, additional cell lines (Table 6-B); assay type: cell-based, human; conditions: Homo sapiens, MCF7; MCF-7, Breast
Procedure: as §1, §2

HCT15 = assay: Cellular EC50, additional cell lines (Table 6-B); assay type: cell-based, human; conditions: Homo sapiens, HCT-15, Colon, P-gp+
Procedure: as §1, §2

HCT116 AZD1152-resistant = assay: ≧4N DNA content assay (FIG. 6-A); assay type: cell-based; conditions: Homo sapiens, HCT-116; HCT116 AZD1152-resistant subline; 24 hours; read-out: cellular ≧4N DNA content EC50
Procedure: Tumor cell lines were obtained from the American Type Culture Collection (ATCC) unless otherwise specified. The MDA-MB-231-PTX and NCI-H460-PTX cell lines were established by growing the cells in the presence of increasing concentrations of paclitaxel over a period of 6 months. The HCT116 AZD1152-resistant cell line was established by growing the cells in the presence of AZD1152 at 80 nmol/L.
as §2
HCT116 cell lines were treated with increasing concentrations of AMG 900 or AZD1152 for 24 hours. Flow cytometry was used to assess the accumulation of cells with ≧4N DNA content expressed as a percentage of the DMSO-treated control (POC). The concentration-response curves and calculated EC50 values were determined from two independent experiments (bars, ±SD).

MES-SA Dx5 = assay: p-Histone H3 assay (ArrayScan VTi); assay type: cell-based; conditions: Homo sapiens, 24 h; MES-SA Dx5, Uterine, Doxorubicin-selected, P-gp overexpressing
Procedure: (§3) MES-SA Dx5 and MES-SA cells were plated at a density of 10,000 cells/well onto 96-well plate in complete media and cultured for 24 hours. […] Cells were washed and fixed by adding 100 μL of 2× formaldehyde fixation buffer for 10 minutes and room temperature. […] Cells were immunostained with p-histone H3 antibody (5 μg/mL) and incubated at room temperature for 2 hours. Cells were washed in 100 μL of wash buffer. Next, cells were incubated with a goat anti-rabbit alexa-488 conjugated antibody (1.5 μg/mL) in wash buffer supplemented with Hoechest DNA dye (1 μg/mL) and incubated at room temperature in the dark for 30 minutes. Cells were washed twice with 100 μL of wash buffer. The 96-well plates were analyzed on an ArrayScan VTi (Cellomics) using a bioapplication algorithm (TargetActivation.V2). […] Cells were then fixed and stained with p-histone H3 antibody and counterstained with a DNA dye (Hoechest). Imaging-based analysis (ArrayScan VTi) was performed to measure the percentage of p-histone H3 positive cells. The dose-response curves represent either AMG 900 or taxol concentrations plotted against p-Histone H3 positive cells as a percentage of DMSO-treated control (POC). The EC50 values were calculated by 4-parameter fit model.

MES-SA = assay: p-Histone H3 assay (ArrayScan VTi); assay type: cell-based; conditions: Homo sapiens, 24 h, Uterine, Parent line
Procedure: as §3

NCI-H460-Taxol-r = assay: Cell cycle DNA content assay (flow cytometry); assay type: cell-based; conditions: Homo sapiens, 24 h, Lung, Paclitaxel-selected, read-out: EC50 @ 24 hours, ≧4N DNA content
Procedure: NCI-H460 parental and NCI-H460 taxol-resistant cells were seeded at a density of 500,000 cells/well in a 6-well plate in 2 mL of appropriate complete media. The next day cells were treated with AMG 900 or taxol over a 6-point concentration range with a final DMSO concentration of 0.05% in media. After 24 hours, cells were pulsed with BrdU (1:100 dilution) and harvested. Cells were centrifuged at 1600 rpm for 4 minutes and the supernatant was aspirated. Cells were washed in 1× PBS and fixed in 900 μL of ice cold 90% methanol and stored at −20° C. Fixed cells were centrifuged at 2000 rpm for 4 minutes to remove 90% methanol. Cells were washed with 200 μL of wash buffer and stained with 200 μL of propidium iodide (PI) overnight at 4° C. in the dark. Data was acquired and analyzed by flow cytomety (LSRII). A threshold gate was applied according to +4N (same as ≧4N) DNA content and SubG1 positive populations based on DMSO-treated control and low/high drug-treated groups. The data was represented as a percentage of +4N DNA and SubG1 positive subpopulations. The +4N (same as ≧4N) DNA content or SubG1 cellular EC50 values were calculated using a 4-parameter equation. Lung tumor cell lines were treated with control (DMSO), AMG 900 or taxol over a 6-point dose range for 24 hours. Flow cytometric-based cell cycle analysis was performed to measure the percentage of ≧4N DNA content or SubG1 DNA content positive cells. The dose-response curves for AMG 900 represent the drug concentration plotted against the percentage of ≧4N DNA content positive cells. The dose-response curves for taxol represent the drug concentration plotted against the percentage of SubG1 DNA content positive cells. The EC50 values were calculated by 4-parameter fit model.

Cc1csc(-c2nnc(Nc3ccc(Oc4ncccc4-c4ccnc(N)n4)cc3)c3ccccc23)c1 [AMG 900, N-(4-((3-(2-amino-4-pyrimidinyl)-2-pyridinyl)oxy)phenyl)-4-(4-methyl-2-thienyl)-1-phthalazinamine]
tumor growth vs vehicle control [1]: significantly inhibited tumor growth | EC50 (769P): 4 nM | EC50 (SNU499): 2 nM | EC50 (MCF-7): 1 nM | EC50 (HCT15): 2 nM | EC50 (HCT116 AZD1152-resistant): 5 nM | EC50 (MES-SA Dx5): < 2 nM | EC50 (MES-SA): < 2 nM | EC50 (NCI-H460-Taxol-r): 1 nM

Source: US20120028917A1, “Use Of N-(4-((3-(2-Amino-4-Pyrimidinyl)-2-Pyridinyl)Oxy)Phenyl)-4-(4-Methyl-2-Thienyl)-1-Phthalazinamine In The Treatment Of Antimitotic Agent Resistant Cancer” (Amgen Inc., priority 2009, published 2012)
